± gives the expanded uncertainty stated by the source.
Legend:
[1] = 101.33 kPa, Liquid, conductivity meter
[2] = molar heat capacity at constant pressure; conditions: 101.33 kPa, Liquid, Small sample (50 mg) DSC

## CCCCn1cc[n+](C)c1.F[P-](F)(F)(F)(F)F [1-butyl-3-methylimidazolium hexafluorophosphate]
[1]; 303.2 K
  electrical conductivity: 0.114 ± 0.002 S/m
[1]; 308.2 K
  electrical conductivity: 0.149 ± 0.003 S/m
[1]; 313.2 K
  electrical conductivity: 0.193 ± 0.006 S/m
[1]; 318.2 K
  electrical conductivity: 0.245 ± 0.018 S/m
[1]; 323.2 K
  electrical conductivity: 0.308 ± 0.006 S/m
[1]; 328.2 K
  electrical conductivity: 0.383 ± 0.008 S/m
[1]; 333.2 K
  electrical conductivity: 0.468 ± 0.018 S/m
[1]; 338.2 K
  electrical conductivity: 0.556 ± 0.022 S/m
[1]; 343.2 K
  electrical conductivity: 0.664 ± 0.018 S/m
[1]; 348.2 K
  electrical conductivity: 0.917 ± 0.026 S/m
[1]; 353.2 K
  electrical conductivity: 1.21 ± 0.024 S/m
[2]; 303.2 K
  molar heat capacity at constant pressure: 412.06 ± 8.5 J/K/mol
[2]; 308.2 K
  molar heat capacity at constant pressure: 417.75 ± 11 J/K/mol
[2]; 313.2 K
  molar heat capacity at constant pressure: 420.59 ± 11 J/K/mol
[2]; 318.2 K
  molar heat capacity at constant pressure: 423.43 ± 11 J/K/mol
[2]; 323.2 K
  molar heat capacity at constant pressure: 423.43 ± 11 J/K/mol
[2]; 328.2 K
  molar heat capacity at constant pressure: 426.27 ± 11 J/K/mol
[2]; 333.2 K
  molar heat capacity at constant pressure: 429.12 ± 11 J/K/mol
[2]; 338.2 K
  molar heat capacity at constant pressure: 431.96 ± 11 J/K/mol
[2]; 343.2 K
  molar heat capacity at constant pressure: 434.8 ± 11 J/K/mol
[2]; 348.2 K
  molar heat capacity at constant pressure: 440.48 ± 11 J/K/mol
[2]; 353.2 K
  molar heat capacity at constant pressure: 443.32 ± 11 J/K/mol
[2]; 358.2 K
  molar heat capacity at constant pressure: 443.32 ± 8.5 J/K/mol

## CCCCn1cc[n+](C)c1.F[B-](F)(F)F [1-butyl-3-methylimidazolium tetrafluoroborate]
[1]; 303.2 K
  electrical conductivity: 0.295 ± 0.016 S/m
[1]; 308.2 K
  electrical conductivity: 0.364 ± 0.018 S/m
[1]; 313.2 K
  electrical conductivity: 0.446 ± 0.009 S/m
[1]; 318.2 K
  electrical conductivity: 0.542 ± 0.011 S/m
[1]; 323.2 K
  electrical conductivity: 0.651 ± 0.013 S/m
[1]; 328.2 K
  electrical conductivity: 0.783 ± 0.016 S/m
[1]; 333.2 K
  electrical conductivity: 0.926 ± 0.019 S/m
[1]; 338.2 K
  electrical conductivity: 1.08 ± 0.022 S/m
[1]; 343.2 K
  electrical conductivity: 1.25 ± 0.025 S/m
[1]; 348.2 K
  electrical conductivity: 1.67 ± 0.033 S/m
[1]; 353.2 K
  electrical conductivity: 2.18 ± 0.044 S/m
[2]; 303.2 K
  molar heat capacity at constant pressure: 368.42 ± 6.8 J/K/mol
[2]; 308.2 K
  molar heat capacity at constant pressure: 370.68 ± 6.8 J/K/mol
[2]; 313.2 K
  molar heat capacity at constant pressure: 372.94 ± 6.8 J/K/mol
[2]; 318.2 K
  molar heat capacity at constant pressure: 375.2 ± 6.8 J/K/mol
[2]; 323.2 K
  molar heat capacity at constant pressure: 377.46 ± 6.8 J/K/mol
[2]; 328.2 K
  molar heat capacity at constant pressure: 379.72 ± 6.8 J/K/mol
[2]; 333.2 K
  molar heat capacity at constant pressure: 381.98 ± 6.8 J/K/mol
[2]; 338.2 K
  molar heat capacity at constant pressure: 384.24 ± 6.8 J/K/mol
[2]; 343.2 K
  molar heat capacity at constant pressure: 386.5 ± 6.8 J/K/mol
[2]; 348.2 K
  molar heat capacity at constant pressure: 388.76 ± 6.8 J/K/mol
[2]; 353.2 K
  molar heat capacity at constant pressure: 391.02 ± 6.8 J/K/mol
[2]; 358.2 K
  molar heat capacity at constant pressure: 393.28 ± 6.8 J/K/mol

## CCCCn1cc[n+](C)c1.COS(=O)(=O)[O-] [1-butyl-3-methylimidazolium methyl sulfate]
[1]; 303.2 K
  electrical conductivity: 0.217 ± 0.02 S/m
[1]; 308.2 K
  electrical conductivity: 0.276 ± 0.018 S/m
[1]; 313.2 K
  electrical conductivity: 0.348 ± 0.022 S/m
[1]; 318.2 K
  electrical conductivity: 0.43 ± 0.014 S/m
[1]; 323.2 K
  electrical conductivity: 0.522 ± 0.016 S/m
[1]; 328.2 K
  electrical conductivity: 0.626 ± 0.022 S/m
[1]; 333.2 K
  electrical conductivity: 0.741 ± 0.016 S/m
[1]; 338.2 K
  electrical conductivity: 0.867 ± 0.02 S/m
[1]; 343.2 K
  electrical conductivity: 1.01 ± 0.022 S/m
[1]; 348.2 K
  electrical conductivity: 1.32 ± 0.026 S/m
[1]; 353.2 K
  electrical conductivity: 1.67 ± 0.033 S/m
[2]; 303.2 K
  molar heat capacity at constant pressure: 375.47 ± 7.5 J/K/mol
[2]; 308.2 K
  molar heat capacity at constant pressure: 380.48 ± 7.5 J/K/mol
[2]; 313.2 K
  molar heat capacity at constant pressure: 382.98 ± 7.5 J/K/mol
[2]; 318.2 K
  molar heat capacity at constant pressure: 382.98 ± 7.5 J/K/mol
[2]; 323.2 K
  molar heat capacity at constant pressure: 385.49 ± 7.5 J/K/mol
[2]; 328.2 K
  molar heat capacity at constant pressure: 387.99 ± 7.5 J/K/mol
[2]; 333.2 K
  molar heat capacity at constant pressure: 390.49 ± 7.5 J/K/mol
[2]; 338.2 K
  molar heat capacity at constant pressure: 393 ± 7.5 J/K/mol
[2]; 343.2 K
  molar heat capacity at constant pressure: 393 ± 7.5 J/K/mol
[2]; 348.2 K
  molar heat capacity at constant pressure: 398 ± 7.5 J/K/mol
[2]; 353.2 K
  molar heat capacity at constant pressure: 398 ± 7.5 J/K/mol
[2]; 358.2 K
  molar heat capacity at constant pressure: 400.51 ± 7.5 J/K/mol

## CCCCn1cc[n+](C)c1.O=S(=O)([O-])C(F)(F)F [1-butyl-3-methylimidazolium trifluoromethanesulfonate]
[1]; 303.2 K
  electrical conductivity: 0.23 ± 0.018 S/m
[1]; 308.2 K
  electrical conductivity: 0.286 ± 0.02 S/m
[1]; 313.2 K
  electrical conductivity: 0.358 ± 0.081 S/m
[1]; 318.2 K
  electrical conductivity: 0.437 ± 0.02 S/m
[1]; 323.2 K
  electrical conductivity: 0.521 ± 0.02 S/m
[1]; 328.2 K
  electrical conductivity: 0.619 ± 0.018 S/m
[1]; 333.2 K
  electrical conductivity: 0.724 ± 0.018 S/m
[1]; 338.2 K
  electrical conductivity: 0.841 ± 0.02 S/m
[1]; 343.2 K
  electrical conductivity: 0.967 ± 0.02 S/m
[1]; 348.2 K
  electrical conductivity: 1.25 ± 0.025 S/m
[1]; 353.2 K
  electrical conductivity: 1.57 ± 0.032 S/m
[2]; 303.2 K
  molar heat capacity at constant pressure: 443.96 ± 8.6 J/K/mol
[2]; 308.2 K
  molar heat capacity at constant pressure: 443.96 ± 8.6 J/K/mol
[2]; 313.2 K
  molar heat capacity at constant pressure: 446.85 ± 8.6 J/K/mol
[2]; 318.2 K
  molar heat capacity at constant pressure: 449.73 ± 8.6 J/K/mol
[2]; 323.2 K
  molar heat capacity at constant pressure: 452.61 ± 12 J/K/mol
[2]; 328.2 K
  molar heat capacity at constant pressure: 452.61 ± 12 J/K/mol
[2]; 333.2 K
  molar heat capacity at constant pressure: 455.5 ± 12 J/K/mol
[2]; 338.2 K
  molar heat capacity at constant pressure: 458.38 ± 12 J/K/mol
[2]; 343.2 K
  molar heat capacity at constant pressure: 461.26 ± 12 J/K/mol
[2]; 348.2 K
  molar heat capacity at constant pressure: 464.14 ± 12 J/K/mol
[2]; 353.2 K
  molar heat capacity at constant pressure: 467.03 ± 12 J/K/mol
[2]; 358.2 K
  molar heat capacity at constant pressure: 469.91 ± 12 J/K/mol

From the NIST ThermoML archive (doi:10.1016/j.tca.2008.10.015)
